# Measurements as given in US9446127B2, “Compositions including androgen receptor degradation (ARD) enhancers and methods of prophylactic or therapeutic treatment of skin disorders and hair loss” (AndroScience Corporation, priority 2007, dated 2016).
# Columns and labels:
# [1] = tested on: skin wounds; assay: Skin wound healing in Balb/c mice; type: in vivo; conditions: cream 25 uM twice per day
# Protocol: The ability of ASC-J9 to hasten wound healing in an animal model was tested using Balb/c mice. Using a skin puncher, wounds were created near the back of the neck region on retired male breeder Balb/c mice. Mice were treated with either an ASC-J9 cream (25 uM) or a vehicle control cream twice per day topically at the wound site.
# [2] = molecular target: T1, mutant androgen receptor poly Q49 (GFPARQ49) (Homo sapiens, UniProt P10275, INS80QQQQQQQQQQQQQQQQQQQQQQQQQQ); assay: Fluorescence microscopy of COS-1 cells transfected with GFPARQ49; type: cell-based; conditions: COS-1, 5 micromolar
# T1 construct: GFP (green fluorescent protein); expressed in transfected cells; host or cells: COS-1 (monkey kidney)
# Protocol: Monkey kidney COS-1 cells were plated at a density of 3×10^4 cells per 0.5-milliliter volume onto alcohol-cleaned and sterilized cover slips placed in 35-millimeter suspension culture dishes containing Dulbecco's modified Eagle's (DME) medium containing 10% FBS. The cells were transfected with plasmids containing the wild type AR (GFPAR) or poly Q49 (plasmid GFPARQ49) mutant androgen receptor and green fluorescent protein (GFP) as a reporter. For each coverslip, 12.3 microliters SuperFect was added to 3.075 micrograms plasmid in 102.5 microliters DME medium (to give a 1:4 ratio of DNA to SuperFect reagent); the mixture was vortexed briefly, and the complex allowed to form over 15 minutes. Each mixture then received 897 microliters CD/DME and was mixed gently. The resulting 1-milliliter volumes were added to the dishes containing the coverslips (final plasmid concentration was […] per dish). Cells were allowed to incubate with the transfection solution for 5 hours, then the medium was changed to fresh 1.5 milliliters CD/DME medium with either vehicle (DMSO) only added or ASC-J9 (final concentration 5 micromolar). […] The coverslips were air-dried, mounted on slides with a glycerol-based mounting agent, and stored at 4 degrees Celsius if necessary prior to observation with fluorescence microscopy. […]
# [3] = tested on: PPARγ, PPARβ, RXRα, ERα and Erβ, ERK, HSP70 and actin; assay: Specificity Western blot in T47D cell lysates, other receptor proteins; type: cell-based, human; conditions: T47D cell lysates (FIG. 6)
# Protocol: Human prostate cancer LNCaP cells and T47D cells were plated at a density of 7×10^5 cells per 60 millimeter tissue culture dish in […] medium containing 10% FBS. The medium was changed to RPMI or DME medium containing 10% charcoal-stripped serum 24 hours later to deplete cellular androgens or estrogens. After another 24 hours, treatment with the test compounds began. The test dose of ASC-J9 was 1, and 5 and micromolar. LNCap cells also received dihydrotestosterone (DHT) (3 nanomolar). Control cells received a corresponding amount of the vehicle, dimethylsulfoxide (DMSO) (<0.04%) for an equivalent exposure time. Cells were incubated with ASC-J9 for 24 hours, and were lysed in 250 microliters of 1×SDS/PAGE loading buffer. Approximately 40 micrograms of total cellular protein was loaded in each lane of a pre-cast gel (NuPAGE, Invitrogen). Protein separation and transfer were performed following the manufacturer's instructions.
# [4] = molecular target: T2, androgen receptor (AR) (Homo sapiens, UniProt P10275, T878A); assay: AR degradation in LNCaP cells in the presence of cycloheximide (Western blot); type: cell-based; conditions: 20 micromolar, cycloheximide 15 micrograms/milliter
# T2 construct: endogenous in cells; host or cells: LNCaP
# T2 sequence (P10275 1-920 T878A): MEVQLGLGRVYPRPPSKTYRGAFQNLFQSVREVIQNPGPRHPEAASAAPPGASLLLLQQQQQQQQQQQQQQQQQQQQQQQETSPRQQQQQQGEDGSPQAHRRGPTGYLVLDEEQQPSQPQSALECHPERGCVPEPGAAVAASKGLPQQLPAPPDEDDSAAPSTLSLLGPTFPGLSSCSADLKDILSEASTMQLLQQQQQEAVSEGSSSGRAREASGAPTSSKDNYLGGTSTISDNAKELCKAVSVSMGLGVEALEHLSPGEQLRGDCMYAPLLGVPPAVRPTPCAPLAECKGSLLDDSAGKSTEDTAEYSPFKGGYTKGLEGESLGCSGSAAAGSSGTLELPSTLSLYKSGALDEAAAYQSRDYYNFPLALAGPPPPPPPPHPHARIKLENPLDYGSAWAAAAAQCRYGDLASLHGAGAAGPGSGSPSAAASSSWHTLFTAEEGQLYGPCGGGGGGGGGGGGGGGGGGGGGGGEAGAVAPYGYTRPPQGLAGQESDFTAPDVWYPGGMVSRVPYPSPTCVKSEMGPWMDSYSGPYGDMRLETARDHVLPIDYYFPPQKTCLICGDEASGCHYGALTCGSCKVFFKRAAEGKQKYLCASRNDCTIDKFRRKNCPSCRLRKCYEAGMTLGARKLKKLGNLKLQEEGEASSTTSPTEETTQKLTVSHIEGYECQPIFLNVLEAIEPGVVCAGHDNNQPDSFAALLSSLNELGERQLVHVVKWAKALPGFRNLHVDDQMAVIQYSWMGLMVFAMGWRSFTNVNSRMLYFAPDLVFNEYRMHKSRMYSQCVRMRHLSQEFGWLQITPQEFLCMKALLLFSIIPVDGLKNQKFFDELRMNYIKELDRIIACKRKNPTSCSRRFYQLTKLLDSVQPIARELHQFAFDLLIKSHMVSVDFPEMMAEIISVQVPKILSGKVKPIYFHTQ
# Protocol: To determine whether the observed reduction of AR protein levels was due to protein degradation rather than inhibition of AR protein synthesis, a second set of three replicate experiments was performed. In these experiments, the protein synthesis inhibitor cycloheximide (CHX) was used to prevent the cells from synthesizing new proteins. In the absence of new AR protein synthesis, any alterations in AR levels would be mainly attributable to protein degradation. LNCaP cells were cultured in the presence and absence of ASC-J9 (20 micromolar) and in the presence and absence of cycloheximide (15 micrograms/milliter). Cells were then incubated for 0, 3, 6 and 12 hours before harvesting and analysis of AR levels by Western blot.
# T1 sequence (P10275 with tags, fused parts or gaps with the stated changes): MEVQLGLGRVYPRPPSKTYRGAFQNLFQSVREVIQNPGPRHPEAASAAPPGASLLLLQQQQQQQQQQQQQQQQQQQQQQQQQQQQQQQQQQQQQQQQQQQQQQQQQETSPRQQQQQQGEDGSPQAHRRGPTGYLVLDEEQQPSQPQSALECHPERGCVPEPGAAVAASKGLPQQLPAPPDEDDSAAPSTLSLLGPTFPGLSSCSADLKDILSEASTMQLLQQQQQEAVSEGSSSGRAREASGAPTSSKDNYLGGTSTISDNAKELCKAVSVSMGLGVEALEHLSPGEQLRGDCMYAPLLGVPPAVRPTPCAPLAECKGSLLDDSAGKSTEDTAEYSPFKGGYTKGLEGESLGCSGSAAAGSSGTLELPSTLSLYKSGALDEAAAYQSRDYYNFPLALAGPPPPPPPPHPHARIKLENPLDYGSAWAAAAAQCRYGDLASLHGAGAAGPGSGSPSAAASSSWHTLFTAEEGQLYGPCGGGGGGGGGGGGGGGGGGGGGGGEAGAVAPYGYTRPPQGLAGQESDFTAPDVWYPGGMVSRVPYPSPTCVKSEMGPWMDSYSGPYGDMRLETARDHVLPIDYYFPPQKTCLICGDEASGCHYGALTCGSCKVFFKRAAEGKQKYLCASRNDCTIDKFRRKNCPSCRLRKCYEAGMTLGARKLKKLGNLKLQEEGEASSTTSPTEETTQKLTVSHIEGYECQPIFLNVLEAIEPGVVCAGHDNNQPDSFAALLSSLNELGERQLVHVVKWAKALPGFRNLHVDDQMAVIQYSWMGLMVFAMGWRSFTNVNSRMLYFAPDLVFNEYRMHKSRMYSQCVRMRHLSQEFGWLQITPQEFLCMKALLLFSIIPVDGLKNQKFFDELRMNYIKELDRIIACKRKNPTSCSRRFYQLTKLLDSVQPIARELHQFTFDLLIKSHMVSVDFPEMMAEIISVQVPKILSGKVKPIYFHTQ
compound,measurement,setting,value
"COc1ccc(C=CC(=O)C=C(O)C=Cc2ccc(OC)c(OC)c2)cc1OC [ASC-J9, 5-hydroxy-1,7-bis(3,4-dimethoxyphenyl)-1,4,6-heptatrien-3-one]",wound size,"[1]; day 5, vs vehicle",smaller wound size
same,wound healing,[1]; day 10,completely healed
same,fluorescent inclusions or aggregates of mutant poly Q49 AR,[2],substantially smaller amounts of fluorescent inclusions
same,expression of other receptor proteins,[3],not affected
same,time within which degradation of existing AR protein was enhanced,[4],≤ 4 h
